Test results reported in patent US12383577B2, “Polysaccharide compound with a defined molecular structure that can eliminate the toxic side effects of chemotherapy drugs” (SHENZHEN YANDAI INVESTMENT CO., LTD, priority 2023, dated 2025).
Marks after values point to notes of the source that are not given here.

Assays:
H22-bearing mice = assay: Antitumor effect of GLP-2 combined with chemotherapy on H22-bearing mice (tumor volume, tumor index, inhibition rates); format: in vivo, C57 mice; details: for Tumor growth inhibition rate vs. the model control group: by tumor weight, cisplatin 3 mg/kg i.p. alone or + GLP-2 low dose 50 mg/kg oral
Procedure: A homogenate suspension of H22 mouse hepatoma was injected subcutaneously under the axilla of 45 healthy male C57 mice to create a solid tumor model. Once all mouse tumors averaged a volume of about 150 mm3, mice were randomized into groups based on tumor volume and were administered the respective drugs or drug solvents via oral gavage or intraperitoneal injection for 18 consecutive days. Longest and shortest diameters of tumors were measured every three days to calculate tumor volume, and mouse weights were recorded every three days. At the end of the experiment, tumors, spleens, and thymuses were harvested and weighed to calculate tumor, spleen, and thymus indices. […] [table] […] Where TRTV is the relative tumor volume in the experimental group, and CRTV is the relative tumor volume in the model control group. Relative tumor volume (RTV)=Vt/V0, where Vt is the tumor volume on day t of dosing, and V0 is the tumor volume at the time of grouping. […] Where T represents the average tumor weight in the treatment group, and C represents the average tumor weight in the model control group. […] Spleen and thymus organ coefficients: After the last dose, spleen, thymus, and tumor weights are measured, and organ coefficients are calculated.

[1] = test system: orthotopic H22-bearing mice; assay: Orthotopic H22-bearing mice: liver tumor by small animal in vivo imaging; parameters: species or system C57 mice; details: Kanglaite soft capsule 1404 mg/kg oral, GLP-2 low dose 130 mg/kg oral
Procedure: An additional 6 mice served as the normal control group. […] The proposed clinical dose for Kanglaite soft capsules is 0.45 g per capsule, 6 capsules per dose, 4 doses per day, which totals 10.8 g per day. […] This study used the proposed clinical dose as a basis for the experiment. […] [table] Tumor volume measurement: Tumor volume changes were measured weekly using small animal in vivo imaging technology.

[2] = LLC-bearing mice study: mortality, survival time, body weight, spleen and thymus indices; format: in vivo, C57 mice
Procedure: Healthy LLC cells were inoculated subcutaneously into the left shoulder of 8 healthy male C57 mice. Once tumors reached a volume of 2,000-3,000 mm3, they were harvested and homogenized to prepare a homogenate suspension. This suspension was then injected subcutaneously into the axilla of 52 healthy male C57 mice to establish a solid tumor model. Once all mouse tumors averaged a volume of about 180 mm3, mice were randomized into groups based on tumor volume and were administered the respective drugs or drug solvents via oral gavage or intraperitoneal injection for 18 consecutive days. Longest and shortest diameters of tumors were measured every three days to calculate tumor volume, and mouse weights were recorded every three days. At the end of the experiment, tumors, spleens, and thymuses were harvested and weighed to calculate tumor, spleen, and thymus indices.
(§1) Spleen and thymus organ coefficients: After the last dose, spleen, thymus, and tumor weights are measured, and organ coefficients are calculated.

[3] = test system: lymphocyte subtypes CD3+/CD4+ and CD3+/CD8+ in the blood; assay: Orthotopic H22-bearing mice study: blood CD3+/CD4+ and CD3+/CD8+ by flow cytometry; format: in vivo, C57 mice; details: blood after last dose, cisplatin 4 mg/kg i.p., Kanglaite soft capsule 1404 mg/kg oral, GLP-2 low dose 130 mg/kg oral
Procedure: (§2) An additional 6 mice served as the normal control group.
CD4^+and CD8^+content measurement: After the last dose, lymphocyte subtypes CD3^+/CD4^+and CD3^+/CD8^+in the blood were measured using flow cytometry.

[4] = Orthotopic H22-bearing mice study: mortality, body weight, organ coefficients; format: in vivo; details: Kanglaite soft capsule 1404 mg/kg oral, GLP-2 low dose 130 mg/kg oral
Source text: as §2

[5] = Orthotopic H22-bearing mice study: routine blood tests and liver/kidney function indicators; format: in vivo, C57 mice; details: blood after last dose, cisplatin 4 mg/kg i.p., Kanglaite soft capsule 1404 mg/kg oral, GLP-2 low dose 130 mg/kg oral
Procedure: as §2
Hematological tests: After the last dose, routine blood tests (WBC and RBC) and biochemical tests (liver and kidney functions) were performed.

[6] = H22-bearing mice study: mortality, survival time, body weight, spleen and thymus indices; format: in vivo, C57 mice
Procedure: A homogenate suspension of H22 mouse hepatoma was injected subcutaneously under the axilla of 45 healthy male C57 mice to create a solid tumor model. Once all mouse tumors averaged a volume of about 150 mm3, mice were randomized into groups based on tumor volume and were administered the respective drugs or drug solvents via oral gavage or intraperitoneal injection for 18 consecutive days. Longest and shortest diameters of tumors were measured every three days to calculate tumor volume, and mouse weights were recorded every three days. At the end of the experiment, tumors, spleens, and thymuses were harvested and weighed to calculate tumor, spleen, and thymus indices.
as §1

LLC-bearing mice = assay: Antitumor effect of GLP-2 combined with chemotherapy on LLC-bearing mice (tumor volume, tumor index, inhibition rates); format: in vivo, C57 mice
Procedure: Healthy LLC cells were inoculated subcutaneously into the left shoulder of 8 healthy male C57 mice. […] This suspension was then injected subcutaneously into the axilla of 52 healthy male C57 mice to establish a solid tumor model. Once all mouse tumors averaged a volume of about 180 mm3, mice were randomized into groups based on tumor volume and were administered the respective drugs or drug solvents via oral gavage or intraperitoneal injection for 18 consecutive days. Longest and shortest diameters of tumors were measured every three days to calculate tumor volume, and mouse weights were recorded every three days. At the end of the experiment, tumors, spleens, and thymuses were harvested and weighed to calculate tumor, spleen, and thymus indices. […] [table] […] Where TRTV is the relative tumor volume in the experimental group, and CRTV is the relative tumor volume in the model control group. Relative tumor volume (RTV)=Vt/V0, where Vt is the tumor volume on day t of dosing, and V0 is the tumor volume at the time of grouping. […] Where T represents the average tumor weight in the treatment group, and C represents the average tumor weight in the model control group. […] Spleen and thymus organ coefficients: After the last dose, spleen, thymus, and tumor weights are measured, and organ coefficients are calculated.

[7] = D0, cisplatin 3 mg/kg i.p. alone or + GLP-2 low dose 50 mg/kg oral
[8] = D3, cisplatin 3 mg/kg i.p. alone or + GLP-2 low dose 50 mg/kg oral
[9] = D6, cisplatin 3 mg/kg i.p. alone or + GLP-2 low dose 50 mg/kg oral
[10] = D9, cisplatin 3 mg/kg i.p. alone or + GLP-2 low dose 50 mg/kg oral
[11] = D12, cisplatin 3 mg/kg i.p. alone or + GLP-2 low dose 50 mg/kg oral
[12] = D15, cisplatin 3 mg/kg i.p. alone or + GLP-2 low dose 50 mg/kg oral
[13] = D18, cisplatin 3 mg/kg i.p. alone or + GLP-2 low dose 50 mg/kg oral
[14] = D0, cisplatin 4 mg/kg i.p. alone or + GLP-2 low dose 50 mg/kg oral
[15] = D3, cisplatin 4 mg/kg i.p. alone or + GLP-2 low dose 50 mg/kg oral
[16] = D6, cisplatin 4 mg/kg i.p. alone or + GLP-2 low dose 50 mg/kg oral
[17] = D9, cisplatin 4 mg/kg i.p. alone or + GLP-2 low dose 50 mg/kg oral
[18] = D12, cisplatin 4 mg/kg i.p. alone or + GLP-2 low dose 50 mg/kg oral
[19] = D15, cisplatin 4 mg/kg i.p. alone or + GLP-2 low dose 50 mg/kg oral
[20] = D18, cisplatin 4 mg/kg i.p. alone or + GLP-2 low dose 50 mg/kg oral
[21] = 14 days, cisplatin 4 mg/kg i.p.
[22] = 18 days, cisplatin 3 mg/kg i.p. alone or + GLP-2 low dose 50 mg/kg oral

## N.N.[Cl][Pt][Cl] [Cisplatin]
H22-bearing mice; [7]
  Tumor volume: 167.9 ± 42.2 mm^3
H22-bearing mice; [8]
  Tumor volume: 205.9 ± 122.5 mm^3
H22-bearing mice; [9]
  Tumor volume: 417.4 ± 228.3 mm^3
H22-bearing mice; [10]
  Tumor volume: 577.3 ± 420.2 mm^3
H22-bearing mice; [11]
  Tumor volume: 798± 676.5^+ mm^3
H22-bearing mice; [12]
  Tumor volume: 952.7± 711.9^+ mm^3
H22-bearing mice; [13]
  Tumor volume: 1097± 805.3^+ mm^3
H22-bearing mice
  Tumor growth inhibition rate vs. the model control group: 57.3^+ %
H22-bearing mice; listed as cisplatin
  Tumor growth inhibition rate vs. the model control group: 57.3%
[1]; W0, cisplatin 4 mg/kg i.p.
  Tumor: 3756000 ± 2439052 P/s/cm^2/sr
[1]; W1, cisplatin 4 mg/kg i.p.
  Tumor: 12898500 ± 3588676 P/s/cm^2/sr
[1]; W2, cisplatin 4 mg/kg i.p.
  Tumor: 11871333 ± 2780016^& P/s/cm^2/sr
[2]; 18 days, cisplatin 4 mg/kg i.p. alone or + GLP-2 low dose 50 mg/kg oral
  Number of deaths: 2
[2]; [14]
  Weight: 20.8 ± 1.4 g
[2]; [15]
  Weight: 20.7 ± 1.3 g
[2]; [16]
  Weight: 20.4 ± 1 g
[2]; [17]
  Weight: 19.7± 0.8*^+ g
[2]; [18]
  Weight: 18.5 ± 0.6*+ g
[2]; [19]
  Weight: 18.2± 1.2*^+ g
[2]; [20]
  Weight: 17.9± 1.4*^+ g
[2]; cisplatin 4 mg/kg i.p. alone or + GLP-2 low dose 50 mg/kg oral
  Survival time: 17.1 ± 1.9 days
[3]
  CD3^+/CD4^+: 4.26 ± 0.04
  CD3^+/CD8^+: 4.21 ± 0.81
[4]; [21]
  Mortality rate: 50.0%
  Number of deaths: 3
  Number of surviving animals: 3
[4]; W0, cisplatin 4 mg/kg i.p.
  Weight: 18.5 ± 1.3 g
[4]; W1, cisplatin 4 mg/kg i.p.
  Weight: 16.9 ± 1.8 g
[4]; W2, cisplatin 4 mg/kg i.p.
  Weight: 15.1 ± 1.6 g
[4]; cisplatin 4 mg/kg i.p.
  Liver coefficient: 11.365 ± 3.599%
  Spleen coefficient: 0.524± 0.295 %
  Thymus coefficient: 0.078 ± 0.023 %
[5]
  ALT: 115 ± 39 U/L
  AST: 771 ± 153 UL
  BUN: 13.52 ± 4.94 mmol/L
  CRE: 18.9 ± 2.7 µmol/L
  RBC: 8.91 ± 0.22 10^12/L
  WBC: 4.41 ± 1.83 10^9/L
[6]; [22]
  Mortality rate: 0.0%
  Number of deaths: 0
[6]; [7]
  Weight: 20.6 ± 1.3 g
[6]; [8]
  Weight: 20.8 ± 1.3 g
[6]; [9]
  Weight: 21 ± 1.3 g
[6]; [10]
  Weight: 21 ± 1.5 g
[6]; [11]
  Weight: 20.7± 1.4^+ g
[6]; [12]
  Weight: 20.5± 1.4^+ g
[6]; [13]
  Weight: 19.9± 1.7^+ g
[6]; cisplatin 3 mg/kg i.p. alone or + GLP-2 low dose 50 mg/kg oral
  Survival time: 18 ± 0 days
LLC-bearing mice; [14]
  Tumor volume: 193 ± 41.9 mm^3
LLC-bearing mice; [15]
  Tumor volume: 350.8 ± 138.5 mm^3
LLC-bearing mice; [16]
  Tumor volume: 692.4± 215.3^+ mm^3
LLC-bearing mice; [17]
  Tumor volume: 956.4± 394^+ mm^3
LLC-bearing mice; [18]
  Tumor volume: 1186.6± 386.4^+ mm^3
LLC-bearing mice; [19]
  Tumor volume: 1388.9± 448.2^+ mm^3
LLC-bearing mice; [20]
  Tumor volume: 1679.8± 439^+ mm^3
LLC-bearing mice; by tumor weight, cisplatin 4 mg/kg i.p. alone or + GLP-2 low dose 50 mg/kg oral
  Tumor growth inhibition rate vs. the model control group: 67.3%
